Patent US10167279B2 (NOVARTIS AG, priority 2014, dated 2019)

Molecular target: C-Raf FL (Homo sapiens (Human), UniProt P04049, Y340E/Y341E)
Assay: In vitro Raf activity determination (Alpha Screen, phospho-MEK), C-Raf FL (full length, Y340E/Y341E)
Format: biochemical
Details: ATP 1 μM; 60 min pre-incubation; 1 hour reaction; column head does not say FL or TR
Summary of the method: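 Read-out is AlphaScreen luminescence using rabbit anti-p-MEK with protein A beads after EDTA stop, with IC50 fitted by non-linear regression. Reaction: Sf9-derived C-Raf plus biotinylated E. coli MEK1 K97R substrate, pH 7.5 Tris/MgCl2/DTT buffer, compound preincubated 60 min at room temperature.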

Sequence of C-Raf FL (P04049 whole entry Y340E/Y341E): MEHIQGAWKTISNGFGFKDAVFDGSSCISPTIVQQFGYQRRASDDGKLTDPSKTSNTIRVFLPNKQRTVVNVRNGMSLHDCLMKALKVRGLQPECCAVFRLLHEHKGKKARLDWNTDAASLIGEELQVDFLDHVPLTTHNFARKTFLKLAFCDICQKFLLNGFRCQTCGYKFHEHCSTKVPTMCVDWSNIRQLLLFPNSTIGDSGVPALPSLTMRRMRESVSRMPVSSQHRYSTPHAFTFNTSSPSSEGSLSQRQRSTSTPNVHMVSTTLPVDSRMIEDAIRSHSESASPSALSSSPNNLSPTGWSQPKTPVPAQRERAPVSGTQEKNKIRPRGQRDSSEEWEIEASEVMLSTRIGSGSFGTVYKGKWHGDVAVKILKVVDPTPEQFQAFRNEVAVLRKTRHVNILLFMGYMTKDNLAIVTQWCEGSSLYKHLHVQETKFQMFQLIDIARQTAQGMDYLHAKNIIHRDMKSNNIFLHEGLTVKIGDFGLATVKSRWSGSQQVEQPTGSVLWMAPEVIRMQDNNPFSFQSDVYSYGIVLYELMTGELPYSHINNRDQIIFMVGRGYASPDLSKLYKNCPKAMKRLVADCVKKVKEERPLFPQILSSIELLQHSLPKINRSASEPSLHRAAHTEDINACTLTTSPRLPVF
Sequence of C-Raf FL (P63104 whole entry partner): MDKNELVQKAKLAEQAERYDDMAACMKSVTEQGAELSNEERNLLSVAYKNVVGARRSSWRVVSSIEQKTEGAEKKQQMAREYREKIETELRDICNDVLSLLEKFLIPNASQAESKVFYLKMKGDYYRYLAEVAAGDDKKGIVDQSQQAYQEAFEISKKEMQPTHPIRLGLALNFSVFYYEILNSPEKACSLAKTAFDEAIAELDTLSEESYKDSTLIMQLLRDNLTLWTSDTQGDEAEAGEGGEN

Point of comparison: `Cc1ccc(NC(=O)c2cnc(C(F)(F)F)cn2)cc1-c1cc(OC[C@H](O)CO)nc(C2CCOCC2)c1` [Example 277, (R)-N-(3-(2-(2,3-dihydroxypropoxy)-6-(tetrahydro-2H-pyran-4-yl)pyridin-4-yl)-4-methylphenyl)-5-(trifluoromethyl) pyrazine-2-carboxamide], IC50 0.2 nM. Against it:
- COC1(c2cc(-c3cc(NC(=O)c4ccnc(C(C)(F)F)c4)ccc3C)cnc2OCCO)COC1 [Example 60, 2-(1,1-difluoroethyl)-N-(3-(6-(2-hydroxyethoxy)-5-(3-methoxyoxetan-3-yl)pyridin-3-yl)-4-methylphenyl)isonicotin-amide] — within 1.5-fold, 0.203 nM
- Cc1ncc(NC(=O)c2ccnc(C(C)(C)F)c2)cc1-c1cccc(C2COC2)c1 [Example 1, 2-(2-fluoropropan-2-yl)-N-(6-methyl-5-(3-(oxetan-3-yl)phenyl)pyridin-3-yl)isonicotinamide] — 5-fold higher, 1 nM
- Cc1nc2cc(C3CCOCC3)cc(-c3cc(NC(=O)c4ccnc(C(F)(F)F)c4)ccc3C)c2[nH]1 [Example 220, N-(4-methyl-3-(2-methyl-5-(tetrahydro-2H-pyran-4-yl)-1H-benzo[d]imidazol-7-yl)phenyl)-2-(trifluoromethyl) isonicotinamide] — 3.5-fold higher, 0.7 nM
- Cc1ccc(NC(=O)c2cccc(C(F)(F)F)c2)cc1-c1cc(OCCO)nc(C2CCOCC2)c1 [Example 189, N-(3-(2-(2-hydroxyethoxy)-6-(tetrahydro-2H-pyran-4-yl)pyridin-4-yl)-4-methylphenyl)-3-(trifluoromethyl) benzamide] — within 1.5-fold, 0.136 nM
- Cc1ccc(NC(=O)c2cc(Cl)ccn2)cc1-c1cc(OCCO)nc(C2CCOCC2)c1 [Example 261, 4-chloro-N-(3-(2-(2-hydroxyethoxy)-6-(tetrahydro-2H-pyran-4-yl)pyridin-4-yl)-4-methylphenyl) picolinamide] — 6.7-fold lower, 0.03 nM
- CCC(F)(F)c1cc(C(=O)Nc2cnc(C)c(-c3cc(NCCO)nc(C4CCOCC4)c3)c2)ccn1 [Example 182, 2-(1,1-difluoropropyl)-N-(2′-((2-hydroxyethyl)amino)-2-methyl-6′-(tetrahydro-2H-pyran-4-yl)-[3,4′-bipyridin]-5-yl) isonicotinamide] — 4.8-fold higher, 0.951 nM
- CCOc1ncc(-c2cc(NC(=O)c3ccnc(C(C)(C)C#N)c3)cnc2C)cc1C1CCOCC1 [Example 164, 2-(2-cyanopropan-2-yl)-N-(6′-ethoxy-2-methyl-5′-(tetrahydro-2H-pyran-4-yl)-[3,3′-bipyridin]-5-yl)isonicotinamide] — 2-fold higher, 0.4 nM
- Cc1ccc(NC(=O)c2ccnc(C(C)(C)C#N)c2)cc1-c1cc(OCCO)nc(C2(C)CCOCC2)c1 [Example 208, 2-(2-cyanopropan-2-yl)-N-(3-(2-(2-hydroxyethoxy)-6-(4-methyltetrahydro-2H-pyran-4-yl)pyridin-4-yl)-4-methylphenyl) isonicotinamide] — 2.5-fold higher, 0.5 nM
- COc1ncc(-c2cc(NC(=O)c3cc(C(F)(F)F)cc(C(C)(C)N)n3)cnc2C)cc1C1(C(F)F)COC1 [Example 148, 6-(2-aminopropan-2-yl)-N-(5′-(3-(difluoromethyl)oxetan-3-yl)-6′-methoxy-2-methyl-[3,3′-bipyridin]-5-yl)-4-(trifluoromethyl)picolin-amide] — 46-fold higher, 9.2 nM
- Cc1ncc(NC(=O)c2ccnc(C(C)(C)F)c2)cc1-c1cnc(OCCO)c(C2(F)COC2)c1 [Example 40, N-(5′-(3-fluorooxetan-3-yl)-6′-(2-hydroxyethoxy)-2-methyl-[3,3′-bipyridin]-5-yl)-2-(2-fluoropropan-2-yl)isonicotinamide] — 17-fold higher, 3.47 nM
- Cc1ccc(NC(=O)c2ccnc(C(C)(F)F)c2)cc1-c1cc2c(c(C3CCOCC3)c1)NC(=O)C(C)(CO)O2 (stereo not shown) [Example 191, 2-(1,1-difluoroethyl)-N-(3-(2-(hydroxymethyl)-2-methyl-3-oxo-5-(tetrahydro-2H-pyran-4-yl)-3,4-dihydro-2H-benzo [b][1,4]oxazin-7-yl)-4-methylphenyl) isonicotinamide] — 2-fold lower, 0.1 nM
- Cc1ncc(NC(=O)c2ccnc(C(C)(F)F)c2)cc1-c1cc(C2(O)COC2)cc(C2(F)COC2)c1 [Example 141, 2-(1,1-difluoroethyl)-N-(5-(3-(3-fluorooxetan-3-yl)-5-(3-hydroxyoxetan-3-yl)phenyl)-6-methylpyridin-3-yl)isonicotinamide] — 30-fold higher, 5.9 nM
- Cc1ccc(NC(=O)c2ccnc(C(F)(F)F)c2)cc1-c1cc(C2CCOCC2)nc(N(CCO)CCO)c1 [Example 176] — 3.4-fold higher, 0.684 nM
- Cc1ccc(NC(=O)c2ccnc(C(F)(F)F)c2)cc1-c1cc(C2CCOCC2)c(NC[C@@H](C)O)nn1 [Example 312, (R)-N-(3-(6-((2-hydroxypropyl)amino)-5-(tetrahydro-2H-pyran-4-yl)pyridazin-3-yl)-4-methylphenyl)-2-(trifluoromethyl) isonicotinamide] — 2-fold lower, 0.1 nM
- Cc1ncc(NC(=O)c2cccc(C(F)(F)F)c2)cc1-c1cc(OCCO)nc(C2(CF)COC2)c1 [Example 132, N-(2′-(3-(fluoromethyl)oxetan-3-yl)-6′-(2-hydroxyethoxy)-2-methyl-[3,4′-bipyridin]-5-yl)-3-(trifluoromethyl)benzamide] — 2.3-fold lower, 0.0853 nM
- Cc1ccc(NC(=O)c2ccnc(C(C)(C)C#N)c2)cc1-c1cc(OCCO)nc(C2CCOCC2)c1 [Example 270, 2-(2-cyanopropan-2-yl)-N-(3-(2-(2-hydroxyethoxy)-6-(tetrahydro-2H-pyran-4-yl)pyridin-4-yl)-4-methylphenyl) isonicotinamide] — 2.2-fold lower, 0.09 nM
- CCOc1ncc(-c2cc(NC(=O)c3cccc(C(F)(F)F)c3)cnc2C)cc1C1(C#N)CCOC1 (stereo not shown) [Example 171, N-(5′-(3-cyanotetrahydrofuran-3-yl)-6′-ethoxy-2-methyl-[3,3′-bipyridin]-5-yl)-3-(trifluoromethyl) benzamide] — 5-fold higher, 1 nM
- Cc1ccc(NC(=O)c2cc(Cl)ccn2)cc1-c1cc(OC[C@H](O)CO)nc(C2CCOCC2)c1 [Example 278, (R)-4-chloro-N-(3-(2-(2,3-dihydroxypropoxy)-6-(tetrahydro-2H-pyran-4-yl)pyridin-4-yl)-4-methylphenyl) picolinamide] — 4-fold lower, 0.05 nM
- Cc1ccc(NC(=O)c2ccnc(C(F)(F)F)c2)cc1-c1cc(C2CCOCC2)c(N[C@@H](C)CO)nn1 [Example 309, (S)-N-(3-(6-((1-hydroxypropan-2-yl)amino)-5-(tetrahydro-2H-pyran-4-yl)pyridazin-3-yl)-4-methylphenyl)-2-(trifluoromethyl) isonicotinamide] — 10-fold lower, 0.02 nM
- Cc1ccc(NC(=O)c2ccnc(C(C)(C)C#N)c2)cc1-c1cc(C2(O)COC2)cc(C2(F)COC2)c1 [Example 138, 2-(2-cyanopropan-2-yl)-N-(3′-(3-fluorooxetan-3-yl)-5′-(3-hydroxyoxetan-3-yl)-6-methyl-[1,1′-biphenyl]-3-yl)isonicotinamide] — 11-fold higher, 2.19 nM
- Cc1ccc(NC(=O)c2cc(C(F)(F)F)ccn2)cc1-c1cc(OCCO)nc(C2(C)CCOCC2)c1 [Example 209, N-(3-(2-(2-hydroxyethoxy)-6-(4-methyltetrahydro-2H-pyran-4-yl)pyridin-4-yl)-4-methylphenyl)-4-(trifluoromethyl) picolinamide] — the same, 0.2 nM
- Cc1ccc(NC(=O)c2ccc(CN)c(C(F)(F)F)c2)cc1-c1cccc(C2COC2)c1 [Example 5, 4-(aminomethyl)-N-(6-methyl-3′-(oxetan-3-yl)-[1,1′-biphenyl]-3-yl)-3-(trifluoromethyl)benzamide] — 10-fold higher, 2 nM
- Cc1ccc(NC(=O)c2cccc(C(F)(F)F)c2)cc1-c1cc(NCCO)nc(C2CCOCC2)c1 [Example 174] — 1.7-fold higher, 0.331 nM
- Cc1ccc(NC(=O)c2ccnc(C(F)(F)CF)c2)cc1-c1cc(OC[C@H](O)CO)nc(C2CCOCC2)c1 [Example 273, (R)-N-(3-(2-(2,3-dihydroxypropoxy)-6-(tetrahydro-2H-pyran-4-yl)pyridin-4-yl)-4-methylphenyl)-2-(1,1,2-trifluoroethyl) isonicotinamide] — 20-fold lower, 0.01 nM
- Cc1ccc(NC(=O)c2cc(C(F)(F)F)ccn2)cc1-c1cc2c(c(C3CCOCC3)c1)NC(=O)C(C)(CO)O2 (stereo not shown) [Example 192, N-(3-(2-(hydroxymethyl)-2-methyl-3-oxo-5-(tetrahydro-2H-pyran-4-yl)-3,4-dihydro-2H-benzo [b][1,4]oxazin-7-yl)-4-methylphenyl)-4-(trifluoromethyl) picolinamide] — within 1.5-fold, 0.3 nM
- Cc1ncc(NC(=O)c2cccc(C(F)(F)F)c2)cc1-c1cc(OCCO)nc(C2(F)COC2)c1 [Example 52, N-(2′-(3-fluorooxetan-3-yl)-6′-(2-hydroxyethoxy)-2-methyl-[3,4′-bipyridin]-5-yl)-3-(trifluoromethyl)benzamide] — 11-fold higher, 2.15 nM
- Cc1ccc(NC(=O)c2ccnc(C(F)F)c2)cc1-c1cc(OCCO)nc(C2(CF)COC2)c1 [Example 55, 2-(difluoromethyl)-N-(3-(2-(3-(fluoromethyl)oxetan-3-yl)-6-(2-hydroxyethoxy)pyridin-4-yl)-4-methylphenyl)isonicotin-amide] — 2.7-fold lower, 0.0747 nM
- Cc1ccc(NC(=O)c2ccnc(C(F)(F)CF)c2)cc1-c1cc(OCCO)nc(C2CCOCC2)c1 [Example 268, N-(3-(2-(2-hydroxyethoxy)-6-(tetrahydro-2H-pyran-4-yl)pyridin-4-yl)-4-methylphenyl)-2-(1,1,2-trifluoroethyl) isonicotinamide] — 10-fold lower, 0.02 nM
- Cc1nc2cc(C3CCOCC3)cc(-c3cc(NC(=O)c4ccnc(C(C)(C)C#N)c4)ccc3C)c2[nH]1 [Example 223, 2-(2-cyanopropan-2-yl)-N-(4-methyl-3-(2-methyl-5-(tetrahydro-2H-pyran-4-yl)-1H-benzo[d]imidazol-7-yl)phenyl) isonicotinamide] — 3-fold higher, 0.6 nM
- Cc1ccc(NC(=O)c2cnnc(C(F)(F)F)c2)cc1-c1cc(OCCO)nc(C2CCOCC2)c1 [Example 271, N-(3-(2-(2-hydroxyethoxy)-6-(tetrahydro-2H-pyran-4-yl)pyridin-4-yl)-4-methylphenyl)-6-(trifluoromethyl) pyridazine-4-carboxamide] — 10-fold lower, 0.02 nM
